Experiments:
Details in all cases: Compound concentration 10.0 uM
[1] = molecular target: Acetylcholine receptor subunit alpha (Homo sapiens) (UniProt P02708); test: Inhibition of Nicotinic Acetylcholine D1, Bungarotoxin at 10 µM in the Eurofins-Panlabs radioligand binding assay (Eurofins_assay_258700)
Rattus norvegicus = organism: Rattus norvegicus; test: Inhibition of Imidazoline I2, Central at 10 µM in the Eurofins-Panlabs radioligand binding assay (Eurofins_assay_241000); set-up: ligand concentration 2 nM
[2] = molecular target: Glutamate NMDA receptor (Rattus norvegicus) (UniProt P35439+Q00959+Q00960+Q00961+Q62645+Q8VHN2+Q9R1M7)
[3] = molecular target: 5-hydroxytryptamine receptor 2B (Homo sapiens) (UniProt P41595)
Sequence of 5-hydroxytryptamine receptor 2B (Homo sapiens) (P41595 whole entry): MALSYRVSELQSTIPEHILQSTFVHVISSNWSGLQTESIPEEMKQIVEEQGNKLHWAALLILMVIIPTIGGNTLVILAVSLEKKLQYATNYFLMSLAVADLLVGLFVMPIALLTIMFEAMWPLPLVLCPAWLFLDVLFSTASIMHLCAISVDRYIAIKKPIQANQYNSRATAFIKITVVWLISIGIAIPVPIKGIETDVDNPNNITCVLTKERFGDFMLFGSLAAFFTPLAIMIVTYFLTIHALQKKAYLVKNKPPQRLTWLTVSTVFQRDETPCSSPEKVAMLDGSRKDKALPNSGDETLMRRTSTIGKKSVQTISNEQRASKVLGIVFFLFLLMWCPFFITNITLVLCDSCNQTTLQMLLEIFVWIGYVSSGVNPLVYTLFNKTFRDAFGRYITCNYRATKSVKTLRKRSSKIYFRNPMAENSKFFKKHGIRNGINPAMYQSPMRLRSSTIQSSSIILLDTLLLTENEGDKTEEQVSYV

[4] = molecular target: T1, Muscarinic acetylcholine receptor M1 (Homo sapiens) (UniProt P11229)
T1 sequence (whole entry): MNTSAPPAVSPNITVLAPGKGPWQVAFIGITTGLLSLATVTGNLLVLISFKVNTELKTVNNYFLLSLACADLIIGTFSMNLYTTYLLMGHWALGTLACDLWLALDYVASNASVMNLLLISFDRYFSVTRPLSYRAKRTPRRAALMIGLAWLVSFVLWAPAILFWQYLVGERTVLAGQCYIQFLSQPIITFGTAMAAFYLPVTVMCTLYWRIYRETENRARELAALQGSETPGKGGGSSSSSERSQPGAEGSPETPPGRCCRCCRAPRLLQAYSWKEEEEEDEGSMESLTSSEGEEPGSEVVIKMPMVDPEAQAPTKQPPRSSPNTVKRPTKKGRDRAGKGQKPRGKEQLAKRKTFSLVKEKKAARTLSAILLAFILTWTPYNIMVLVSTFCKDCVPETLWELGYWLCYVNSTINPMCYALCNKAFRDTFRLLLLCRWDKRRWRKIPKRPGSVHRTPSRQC

[5] = molecular target: D(1A) dopamine receptor (Homo sapiens) (UniProt P21728)
Sequence of D(1A) dopamine receptor (Homo sapiens) (P21728 whole entry): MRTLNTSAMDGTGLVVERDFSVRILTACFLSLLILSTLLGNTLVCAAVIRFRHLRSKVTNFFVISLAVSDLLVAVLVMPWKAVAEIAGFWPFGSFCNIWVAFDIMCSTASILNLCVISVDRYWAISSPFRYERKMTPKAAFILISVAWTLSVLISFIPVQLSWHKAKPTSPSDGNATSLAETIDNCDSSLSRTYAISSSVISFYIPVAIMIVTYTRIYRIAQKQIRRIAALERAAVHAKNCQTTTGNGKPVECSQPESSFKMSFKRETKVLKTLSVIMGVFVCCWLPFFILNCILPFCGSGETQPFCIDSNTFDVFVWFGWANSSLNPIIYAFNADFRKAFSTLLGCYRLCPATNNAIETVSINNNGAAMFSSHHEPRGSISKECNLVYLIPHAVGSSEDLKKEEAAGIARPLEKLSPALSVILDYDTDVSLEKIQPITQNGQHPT

Oryctolagus cuniculus = organism: Oryctolagus cuniculus; test: Inhibition of Purinergic P2X at 10 µM in the Eurofins-Panlabs radioligand binding assay (Eurofins_assay_268700); type: protein assay
[6] = molecular target: Glutamate receptor ionotropic, kainate (Rattus norvegicus) (UniProt P22756+Q01812+P42260+P42264+Q63273); test: Inhibition of Glutamate, Kainate at 10 µM in the Eurofins-Panlabs radioligand binding assay (Eurofins_assay_232700)
[7] = molecular target: Muscarinic acetylcholine receptor M3 (Homo sapiens) (UniProt P20309)
Sequence of Muscarinic acetylcholine receptor M3 (Homo sapiens) (P20309 whole entry, looked up): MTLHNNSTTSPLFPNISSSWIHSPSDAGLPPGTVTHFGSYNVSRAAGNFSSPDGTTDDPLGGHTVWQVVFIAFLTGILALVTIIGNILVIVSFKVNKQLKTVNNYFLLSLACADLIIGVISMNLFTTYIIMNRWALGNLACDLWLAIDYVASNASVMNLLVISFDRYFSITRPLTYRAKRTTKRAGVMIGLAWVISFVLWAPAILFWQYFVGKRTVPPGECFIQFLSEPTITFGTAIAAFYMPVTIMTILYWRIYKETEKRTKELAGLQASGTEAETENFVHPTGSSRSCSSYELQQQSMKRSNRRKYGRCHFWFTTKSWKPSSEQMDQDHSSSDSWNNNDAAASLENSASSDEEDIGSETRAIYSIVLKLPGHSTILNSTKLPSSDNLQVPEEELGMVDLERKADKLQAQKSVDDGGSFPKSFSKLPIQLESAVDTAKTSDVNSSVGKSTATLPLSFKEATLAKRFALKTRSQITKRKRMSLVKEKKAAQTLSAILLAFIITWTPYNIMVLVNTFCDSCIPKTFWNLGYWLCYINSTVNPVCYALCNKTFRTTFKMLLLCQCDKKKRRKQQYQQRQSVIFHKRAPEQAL

[8] = molecular target: D(2) dopamine receptor (Homo sapiens) (UniProt P14416)
Sequence of D(2) dopamine receptor (Homo sapiens) (P14416 whole entry): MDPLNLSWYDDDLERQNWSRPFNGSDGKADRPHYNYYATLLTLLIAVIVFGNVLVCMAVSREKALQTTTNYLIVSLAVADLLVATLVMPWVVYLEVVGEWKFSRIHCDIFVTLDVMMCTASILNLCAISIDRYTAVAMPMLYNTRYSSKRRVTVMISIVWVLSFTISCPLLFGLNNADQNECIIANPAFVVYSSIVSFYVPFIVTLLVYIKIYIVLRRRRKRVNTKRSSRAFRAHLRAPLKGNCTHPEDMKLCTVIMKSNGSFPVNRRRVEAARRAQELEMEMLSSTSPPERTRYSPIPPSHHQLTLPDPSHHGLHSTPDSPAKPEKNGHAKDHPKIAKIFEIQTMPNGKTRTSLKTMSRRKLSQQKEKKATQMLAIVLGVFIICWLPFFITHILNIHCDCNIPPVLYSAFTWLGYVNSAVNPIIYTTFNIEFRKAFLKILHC

[9] = molecular target: Beta-1 adrenergic receptor (Homo sapiens) (UniProt P08588)
Sequence of Beta-1 adrenergic receptor (Homo sapiens) (P08588 whole entry, looked up): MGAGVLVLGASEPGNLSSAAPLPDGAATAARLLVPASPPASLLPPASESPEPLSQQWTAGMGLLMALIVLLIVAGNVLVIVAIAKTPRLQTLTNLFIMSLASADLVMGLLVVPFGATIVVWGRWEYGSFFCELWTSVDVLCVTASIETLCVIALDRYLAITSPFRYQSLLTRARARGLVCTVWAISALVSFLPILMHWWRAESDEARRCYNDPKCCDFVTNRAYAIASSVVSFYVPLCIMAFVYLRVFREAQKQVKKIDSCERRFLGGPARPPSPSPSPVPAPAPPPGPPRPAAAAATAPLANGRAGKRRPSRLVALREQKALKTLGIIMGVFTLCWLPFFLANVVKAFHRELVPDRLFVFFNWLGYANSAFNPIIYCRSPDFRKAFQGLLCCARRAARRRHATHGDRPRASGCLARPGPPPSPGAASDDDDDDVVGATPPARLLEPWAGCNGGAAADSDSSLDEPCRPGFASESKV

[10] = molecular target: Gamma-aminobutyric acid type B receptor subunit 1 (Homo sapiens) (UniProt Q9UBS5); test: Inhibition of GABAB1A at compound concentration of 10.0 uM in the Eurofins-Panlabs radioligand binding assay (Eurofins_assay_228610); set-up: ligand concentration 4 nM
Sequence of Gamma-aminobutyric acid type B receptor subunit 1 (Homo sapiens) (Q9UBS5 whole entry): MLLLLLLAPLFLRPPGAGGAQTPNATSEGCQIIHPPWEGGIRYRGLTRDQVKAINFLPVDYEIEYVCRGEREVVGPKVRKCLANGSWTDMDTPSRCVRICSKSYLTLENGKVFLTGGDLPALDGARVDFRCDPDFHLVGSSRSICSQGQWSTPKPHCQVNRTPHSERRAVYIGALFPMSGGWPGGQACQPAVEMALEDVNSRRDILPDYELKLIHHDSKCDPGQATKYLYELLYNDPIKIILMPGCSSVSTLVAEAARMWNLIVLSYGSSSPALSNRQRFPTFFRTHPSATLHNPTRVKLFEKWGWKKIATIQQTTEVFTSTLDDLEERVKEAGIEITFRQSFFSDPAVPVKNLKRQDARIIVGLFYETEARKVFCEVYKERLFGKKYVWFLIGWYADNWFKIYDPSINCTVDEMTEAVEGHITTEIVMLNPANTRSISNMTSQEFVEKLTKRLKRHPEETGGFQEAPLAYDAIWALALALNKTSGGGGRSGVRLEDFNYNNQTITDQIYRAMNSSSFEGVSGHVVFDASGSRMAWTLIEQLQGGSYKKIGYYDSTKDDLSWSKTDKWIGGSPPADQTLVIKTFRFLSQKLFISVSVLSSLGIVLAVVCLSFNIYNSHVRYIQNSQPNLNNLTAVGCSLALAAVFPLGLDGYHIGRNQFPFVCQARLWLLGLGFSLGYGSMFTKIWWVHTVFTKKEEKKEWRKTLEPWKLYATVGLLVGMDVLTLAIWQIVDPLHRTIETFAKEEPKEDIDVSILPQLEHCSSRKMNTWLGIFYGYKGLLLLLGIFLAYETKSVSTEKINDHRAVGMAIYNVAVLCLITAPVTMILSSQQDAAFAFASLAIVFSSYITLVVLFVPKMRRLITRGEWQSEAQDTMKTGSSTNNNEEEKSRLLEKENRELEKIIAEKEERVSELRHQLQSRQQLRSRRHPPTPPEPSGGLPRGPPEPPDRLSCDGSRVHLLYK

[11] = molecular target: B2 bradykinin receptor (Homo sapiens) (UniProt P30411); test: Bradykinin B2 Eurofins-Panlabs radioligand binding assay
Sequence of B2 bradykinin receptor (Homo sapiens) (P30411 whole entry): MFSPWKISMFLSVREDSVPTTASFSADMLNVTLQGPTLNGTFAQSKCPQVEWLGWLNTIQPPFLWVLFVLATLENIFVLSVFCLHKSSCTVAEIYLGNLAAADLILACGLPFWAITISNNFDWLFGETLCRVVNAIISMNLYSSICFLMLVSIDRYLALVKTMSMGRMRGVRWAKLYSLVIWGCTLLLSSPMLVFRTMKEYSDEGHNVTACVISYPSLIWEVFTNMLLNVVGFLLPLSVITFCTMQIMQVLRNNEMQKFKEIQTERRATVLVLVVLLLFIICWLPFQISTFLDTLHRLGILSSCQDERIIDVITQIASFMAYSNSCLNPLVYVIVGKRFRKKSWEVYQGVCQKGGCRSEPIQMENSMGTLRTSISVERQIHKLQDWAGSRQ

Measured: inhibition

Sequence of Acetylcholine receptor subunit alpha (Homo sapiens) (P02708 whole entry): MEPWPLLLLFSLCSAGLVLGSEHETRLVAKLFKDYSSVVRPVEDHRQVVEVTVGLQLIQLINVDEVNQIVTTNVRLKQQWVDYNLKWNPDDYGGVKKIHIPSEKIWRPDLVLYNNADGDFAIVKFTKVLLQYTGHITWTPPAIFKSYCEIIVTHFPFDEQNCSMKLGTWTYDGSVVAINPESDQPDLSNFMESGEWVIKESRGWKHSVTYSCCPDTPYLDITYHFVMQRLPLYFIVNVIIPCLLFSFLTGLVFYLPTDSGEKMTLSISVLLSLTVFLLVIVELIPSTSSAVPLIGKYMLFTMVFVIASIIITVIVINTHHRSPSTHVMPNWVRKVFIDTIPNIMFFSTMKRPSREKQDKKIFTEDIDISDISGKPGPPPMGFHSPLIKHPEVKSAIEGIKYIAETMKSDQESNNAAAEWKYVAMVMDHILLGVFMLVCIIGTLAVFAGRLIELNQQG

O=C(O)[C@H]1[C@H](Cn2nnc3ccccc3c2=O)CC[C@@H]1C(=O)c1ccc(OCCC2CCOCC2)cc1 [BAY-7598]
inactive: [1] 0% | Rattus norvegicus 5% | [2] 9% | [3] 4% | [4] 0% | [5] 3% | Oryctolagus cuniculus -1% | [6] -4% | [7] 2% | [8] 2% | [9] 0% | [10] 0% | [11] -10%

— ChEMBL document CHEMBL4507264, “Data for DCP probe BAY-7598” (2021)
